Test results taken from US12042483B2, “Prophylactic and therapeutic drug for nonalcoholic fatty liver disease” (Kowa Company, Ltd., priority 2017, dated 2024).

Assays:
Format in all cases: in vivo
NASH-HCC mouse [1] = assay: Ballooning of hepatocytes score, NASH-HCC mouse model (Example 2, Compound 1 with ipragliflozin); details: 3 weeks, group mean of scores 0-2, control 1.50, not significant vs control
Description: Ballooning of hepatocytes in each mouse was scored under blind conditions according to the following criteria (Kleiner et al., Hepatology 41, 1313-21, 2005). No balloon cells: 0 Balloon cell is rare (Few balloon cells): 1 Many Balloon cells or prominent (Ballooning): 2 Then, the mean value of the scores (ballooning score) was calculated in each group and the values were shown (FIG. 2). Statistical processing was performed using statistical software EZR, which extends the functions of R and R commander. The software is distributed free of charge on the website of Jichi Medical University Saitama Medical Center (Bone Marrow Transplantation (2013) 48, 452-458). The Steel test (N=5 to 7) was performed using EZR, the drug administration group was labeled with the mark * in figures when the group had the significant difference at p<0.05 with respect to the control group, and labeled with the mark ** when the group had the significant difference at p<0.01. The effect of Compound 1 combined with ipragliflozin was examined in NASH-HCC mice (Non-Patent Document 9). NASH-HCC mice were prepared in the same manner as in 1) of Example 1, and were used for this experiment. […]

NASH-HCC mouse [2] = assay: Lipid droplet size in hepatocytes, NASH-HCC mouse model (Example 1, Compound 1 with tofogliflozin); details: 3 weeks, control 1.17, not significant vs control
Description: A NASH-HCC mouse is a model animal that develops liver cirrhosis from fatty liver via NASH when it is fed with a high fat diet, and subsequently develops hepatocellular carcinoma (Non-Patent Document 9). The effect of compound 1 combined with tofogliflozin was examined using the NASH-HCC mouse model. NASH-HCC mice were prepared with reference to Non-Patent Document 9, and were used for this experiment. Specifically, male C57BL/6J mice were subcutaneously administered 200 μg of streptozotocin on the second day after birth. The mice were fed ad libitum with a high-fat diet (HFD-32, Clea Japan, Inc.) for 2 weeks starting from 4-week-old. The mice were separated into four groups as described in below 2) and were administered drugs from 6-week-old to 9-week-old as described in below 3). Daily food consumption of the mice in each group were measured while the drugs were administered so that the mice of all groups were fed with the same amount of food as those for the control group. […] Using the specimens, the lipid droplet size in hepatocyte was analyzed by image analysis software Image J. The area of 6000 to 10,000 lipid droplets was measured in each specimen. The median of the lipid droplet area was calculated for each mouse and then the median and quartile were calculated for each group based on the median for each mouse in the group. […]

NASH-HCC mouse [3] = assay: Ballooning of hepatocytes score, NASH-HCC mouse model (Example 1, Compound 1 with tofogliflozin); details: 3 weeks, group mean of scores 0-2, control 1.33, not significant vs control
Description: A NASH-HCC mouse is a model animal that develops liver cirrhosis from fatty liver via NASH when it is fed with a high fat diet, and subsequently develops hepatocellular carcinoma (Non-Patent Document 9). The effect of compound 1 combined with tofogliflozin was examined using the NASH-HCC mouse model. NASH-HCC mice were prepared with reference to Non-Patent Document 9, and were used for this experiment. Specifically, male C57BL/6J mice were subcutaneously administered 200 μg of streptozotocin on the second day after birth. The mice were fed ad libitum with a high-fat diet (HFD-32, Clea Japan, Inc.) for 2 weeks starting from 4-week-old. […] Daily food consumption of the mice in each group were measured while the drugs were administered so that the mice of all groups were fed with the same amount of food as those for the control group. […] Using the specimens, the lipid droplet size in hepatocyte was analyzed by image analysis software Image J. The area of 6000 to 10,000 lipid droplets was measured in each specimen. The median of the lipid droplet area was calculated for each mouse and then the median and quartile were calculated for each group based on the median for each mouse in the group. […] Ballooning of hepatocytes in each mouse was scored under blind conditions according to the following criteria (Kleiner et al., Hepatology 41, 1313-21, 2005). […]

[4] = 0.1 mg/kg Compound 1, oral once a day
[5] = 10 mg/kg tofogliflozin, oral once a day

CC[C@@H](Oc1cccc(CN(CCCOc2ccc(OC)cc2)c2nc3ccccc3o2)c1)C(=O)O [Compound 1, (R)-2-[3-[[N-(benzoxazol-2-yl)-N-3-(4-methoxyphenoxy)propyl]aminomethyl]phenoxy]butyric acid]
ballooning score (NASH-HCC mouse [1]; [4]): 1.35 | median of lipid droplet size (NASH-HCC mouse [2]; [4]): 1.00 μm^2 | ballooning score (NASH-HCC mouse [3]; [4]): 0.60

OC[C@H]1O[C@@H](c2ccc(F)c(Cc3cc4ccccc4s3)c2)[C@H](O)[C@@H](O)[C@@H]1O [ipragliflozin, (1S)-1,5-anhydro-1-C-{3-[(1-benzothiophen-2-yl)methyl]-4-fluorophenyl}-D-glucitol]
ballooning score (NASH-HCC mouse [1]; 3 mg/kg ipragliflozin, oral once a day): 0.88

CCc1ccc(Cc2ccc3c(c2)[C@]2(OC3)O[C@H](CO)[C@@H](O)[C@H](O)[C@H]2O)cc1 [tofogliflozin, (1S,3′R,4'S,5'S,6′R)-6-[(4-ethylphenyl)methyl]-6′-(hydroxymethyl)-3′,4′,5′,6′-tetrahydro-3H-spiro[2-benzofuran-1,2′-pyran]-3′,4′,5′-triol]
median of lipid droplet size (NASH-HCC mouse [2]; [5]): 1.00 μm^2 | ballooning score (NASH-HCC mouse [3]; [5]): 0.71
